This is an account of results in patent publication US10939901B2, “Customizable anchorage devices and methods of use” (TYRX, Inc., priority 2016, dated 2021).

One data set deals with blood clotting. In words: Time required to induce blood clotting in vitro. The format is biochemical. Here is the method:
Tests were conducted to compare the time required to induce blood clotting in vitro when different amounts of hemostatic agent is administered in the presence of TYRX (degradable mesh coated with P22-27.5 containing rifampin and minocycline), as shown in FIG. 23.
Tests were conducted to compare the time required for different hemostatic agents to induce blood clotting in vitro versus the time required to induce blood clotting in vitro when no hemostatic agent is administered. In particular, the time required to induce blood clotting was plotted for blood alone, TYRX, Surgicel, TYRX with 1.6 mg of TXA, 1.2 mg of TXA alone and TYRX with 200 mg of TXA. In this example, TYRX refers to a Glycoprene mesh that is coated with P22-27.5 (a polymer in the P22-X family) containing Rifampin and Minocycline.

The nature of data set [1]: Stability of rifampin and minocycline in PBS with and without tranexamic acid. Type of data set: physicochemical. The method, then:
To determine the stability of active pharmaceutical ingredients, such as, for example, one or more of active pharmaceutical ingredients 26 when combined with a hemostatic agent, such as, for example, one or more of hemostatic agents 24, mixtures of rifampin and minocycline were prepared in phosphate-buffered saline (PBS) with and without tranexamic acid (TXA). The mixtures were tested both at room temperature (RT) (about 23° C.) and at 37° C.

The subject of the next data set is myofibroblast formation. Conditions: Ajmal et al. (2003); cited from earlier work.
Data set [2] is described as follows: In vitro elution of rifampin and minocycline from p22-27.5 polymers with TXA in the release media. Type of data set: physicochemical. Conditions: PBS pH 7.4 without TXA, with TXA 0.05 mg/mL or 5 mg/mL, over 25 hours. The text has this:
To determine the elution of active pharmaceutical ingredients, such as, for example, one or more of active pharmaceutical ingredients 26 from a polymer, such as, for example, one of the polymers discussed herein, in vitro when the active pharmaceutical ingredients are combined with a hemostatic agent, such as, for example, one or more of hemostatic agents 24, in vitro elution of rifampin and minocycline from polymers in the p22-27.5 family containing different amounts of tranexamic acid was evaluated in a PBS buffer over 25 hours. B1=PBS pH 7.4; B2=PBS, pH 7.4+TXA (0.05 mg/mL); B3=PBS, pH 7.4+TXA (5 mg/mL).

For `NC[C@H]1CC[C@H](C(=O)O)CC1` [tranexamic acid], the Clotting time result with blood clotting (higher amounts of TXA (1.6 mg TXA vs 200 mg of TXA) in the presence of TYRX) was “increased”. For the same compound, the “time required to induce blood clotting” value with blood clotting (in vitro, 1.2 mg of TXA alone) is reported as “about 19 minutes”. In addition, the “effect on the stability of rifampin and minocycline” value in data set [1] (RT and 37° C.) was “does not negatively affect the stability of rifampin and minocycline”.
As to `O=S(=O)([O-])CCS.[Na+]` [MESNA, sodium 2-mercaptoethane sulfonate], the myofibroblast formation result with myofibroblast formation is listed as “diminish myofibroblast formation”.
On to `CO[C@H]1/C=C/O[C@@]2(C)Oc3c(C)c(O)c4c(O)c(c(/C=N/N5CCN(C)CC5)c(O)c4c3C2=O)NC(=O)/C(C)=C\C=C\[C@H](C)[C@H](O)[C@@H](C)[C@@H](O)[C@@H](C)[C@H](OC(C)=O)[C@@H]1C` [rifampin], for which the “elution rate from p22-27.5 polymer” value in data set [2] is reported as “not affected by the presence of TXA”. The “percentage area of rifampin, mixtures with versus without tranexamic acid” value in data set [1] (RT (about 23° C.) and 37° C., regardless of the temperature) is “substantially the same”.
